Tests used:
[1] = tested on: head & neck carcinoma PDX model HN10309; assay: KcAng(1-7) on growth of head & neck carcinoma PDX HN10309 in mice; assay type: in vivo, NMRI nu/nu mice (human PDX)
Experimental: In vivo studies were conducted at EPO GmbH Berlin. Large studies (FIG. 1A, 2, 3, 4, 5) comprised 3 groups of 10 mice/group and 5 animals as reserve, as outlined in Table 1. Smaller studies (FIG. 1B, 1C, 1D) comprised 2 groups of mice of 3 mice per group. The animals were allocated to the various treatment groups (e.g. 0.2 μg/kg and 30 μg/kg) with a maximum of 10 animals per group. […] The groups received subcutaneous (s.c.) drug injection (for max. 28 days) as outlined in the Table 1.
NMRI nu/nu mice were used in this study. The animals were female at age of 6 to 8 weeks. The respective PDX tumors were inoculated subcutaneously (s.c.), and the tumors were grown to achieve palpable tumor sizes before start of the respective treatments. The PDX included breast (MaCa4151), colon (Co9689A), head & neck (HN10309), lung (Lu7433) and ovarian (OvCa13329) cancer (Table 2).
Treatment with KcAng(1-7) was started with palpable tumors after the randomization of animals regarding tumor volume. KcAng(1-7) was applied s.c. by daily injections at […] or 30 μg/kg dose for a maximum of 28 days (or earlier as defined by the humane end point for the study).
KcAng(1-7) was prepared as follows: The compounds was suspended in sterile PBS resulting in a clear solution. The remains of this formulation were stored at 4° C.
Tumor growth stimulatory or inhibitory activity of the KcAng(1-7) was evaluated by determination of tumor volumes (TV). During the study, tumor volumes and body weight were measured twice a week, and the ratio of the mean tumor volumes between the compound-treated group and the vehicle-treated group (T/C) was calculated.
Tumor volume=(tumor width)×(tumor width)×(tumor length)+2
T/C=T÷C • T: Mean estimated tumor volume of the compound-treated group • C: Mean estimated tumor volume of the vehicle-treated group

[2] = tested on: U87MG glioblastoma CDX; assay: Tumor hemoglobin level (indirect angiogenesis) in U87MG CDX; assay type: in vivo, cd1 nu/nu mice (human GBM cell line); details: KcAng(1-7) 1 μg/kg/d, Losartan 20 mg/kg/d, or both
Experimental: Efficacy of treatment was evaluated by: […] Mice with U87MG cell CDX were randomized at day 0. KcAng(1-7) was injected subcutaneously (1 μg/kg) on a daily basis. Losartan was administered intraperitoneal at 20 mg/kg/day. […] In brief, tumors were homogenized in double-distilled water. Eighty microliters of homogenates were mixed with 1 mL of Drabkin's solution and incubated for 15 min at room temperature. After centrifugation at 400×g for 5 min, the supernatants were subjected to absorbance measurement at 540 nm. The absorption, which is proportional to hemoglobin concentration, was divided by tumor weight.

[3] = Gr. B 0.2 μg/kg/d s.c., Day 35 (Meas. 1)
[4] = Gr. B 0.2 μg/kg/d s.c., Day 38 (Meas. 2)
[5] = Gr. B 0.2 μg/kg/d s.c., Day 41 (Meas. 3)
[6] = Gr. B 0.2 μg/kg/d s.c., Day 45 (Meas. 4)
[7] = Gr. B 0.2 μg/kg/d s.c., Day 49 (Meas. 5)
[8] = Gr. B 0.2 μg/kg/d s.c., Day 52 (Meas. 6)
[9] = Gr. B 0.2 μg/kg/d s.c., Day 55 (Meas. 7)
[10] = Gr. B 0.2 μg/kg/d s.c., Day 58 (Meas. 8)
[11] = Gr. B 0.2 μg/kg/d s.c., Day 63 (Meas. 9)
[12] = Gr. C 30 μg/kg/d s.c., Day 35 (Meas. 1)
[13] = Gr. C 30 μg/kg/d s.c., Day 38 (Meas. 2)
[14] = Gr. C 30 μg/kg/d s.c., Day 41 (Meas. 3)
[15] = Gr. C 30 μg/kg/d s.c., Day 45 (Meas. 4)
[16] = Gr. C 30 μg/kg/d s.c., Day 49 (Meas. 5)
[17] = Gr. C 30 μg/kg/d s.c., Day 52 (Meas. 6)
[18] = Gr. C 30 μg/kg/d s.c., Day 55 (Meas. 7)
[19] = Gr. C 30 μg/kg/d s.c., Day 58 (Meas. 8)
[20] = Gr. C 30 μg/kg/d s.c., Day 63 (Meas. 9)

Lys-Asp-Arg-Val-Abu/Ala-Ile-His-Abu/Ala (KDRVAIHA; not fully specified; cyclic thioether (Abu/Ala bridge); VARIANT (5)..(5) /replace=“Abu”; VARIANT (8)..(8) /replace=“Abu”; SITE (1)..(8) /note=“Variant residues given in the sequence have no preference with respect to those in the annotations for variant positions”) [KcAng(1-7)]
optT/C ([1]; 30 μg/kg, day 14 of the treatment): 71% | effect on tumor volume ([1]; 0.2 and 30 μg/kg, 28 days): did not result in a reduction or increase in tumor volume | RTV Mean [1, 3]: 1 | RTV Median [1, 3]: 1 | T/C [1, 3]: 100.1% | Tumor Vol. Mean [1, 3]: 0.083 cm^3 | Tumor Vol. Median [1, 3]: 0.064 cm^3 | RTV Mean [1, 4]: 1.6 | RTV Median [1, 4]: 1.7 | T/C [1, 4]: 107.9% | Tumor Vol. Mean [1, 4]: 0.128 cm^3 | Tumor Vol. Median [1, 4]: 0.085 cm^3 | RTV Mean [1, 5]: 2.1 | RTV Median [1, 5]: 2.1 | T/C [1, 5]: 100.6% | Tumor Vol. Mean [1, 5]: 0.164 cm^3 | Tumor Vol. Median [1, 5]: 0.14 cm^3 | RTV Mean [1, 6]: 2.6 | RTV Median [1, 6]: 2.5 | T/C [1, 6]: 116.7% | Tumor Vol. Mean [1, 6]: 0.217 cm^3 | Tumor Vol. Median [1, 6]: 0.158 cm^3 | RTV Mean [1, 7]: 3.3 | RTV Median [1, 7]: 3.2 | T/C [1, 7]: 104.4% | Tumor Vol. Mean [1, 7]: 0.275 cm^3 | Tumor Vol. Median [1, 7]: 0.209 cm^3 | RTV Mean [1, 8]: 4.4 | RTV Median [1, 8]: 4 | T/C [1, 8]: 126.7% | Tumor Vol. Mean [1, 8]: 0.367 cm^3 | Tumor Vol. Median [1, 8]: 0.303 cm^3 | RTV Mean [1, 9]: 5.4 | RTV Median [1, 9]: 4.8 | T/C [1, 9]: 126.5% | Tumor Vol. Mean [1, 9]: 0.443 cm^3 | Tumor Vol. Median [1, 9]: 0.366 cm^3 | RTV Mean [1, 10]: 5.8 | RTV Median [1, 10]: 4.9 | T/C [1, 10]: 115.2% | Tumor Vol. Mean [1, 10]: 0.473 cm^3 | Tumor Vol. Median [1, 10]: 0.437 cm^3 | RTV Mean [1, 11]: 8.9 | RTV Median [1, 11]: 7.3 | T/C [1, 11]: 120.4% | Tumor Vol. Mean [1, 11]: 0.677 cm^3 | Tumor Vol. Median [1, 11]: 0.64 cm^3 | RTV Mean [1, 12]: 1 | RTV Median [1, 12]: 1 | T/C [1, 12]: 99.5% | Tumor Vol. Mean [1, 12]: 0.083 cm^3 | Tumor Vol. Median [1, 12]: 0.077 cm^3 | RTV Mean [1, 13]: 1.3 | RTV Median [1, 13]: 1.3 | T/C [1, 13]: 83.5% | Tumor Vol. Mean [1, 13]: 0.099 cm^3 | Tumor Vol. Median [1, 13]: 0.092 cm^3 | RTV Mean [1, 14]: 1.6 | RTV Median [1, 14]: 1.5 | T/C [1, 14]: 74.6% | Tumor Vol. Mean [1, 14]: 0.122 cm^3 | Tumor Vol. Median [1, 14]: 0.117 cm^3 | RTV Mean [1, 15]: 1.8 | RTV Median [1, 15]: 1.7 | T/C [1, 15]: 75% | Tumor Vol. Mean [1, 15]: 0.139 cm^3 | Tumor Vol. Median [1, 15]: 0.135 cm^3 | RTV Mean [1, 16]: 2.2 | RTV Median [1, 16]: 2.2 | T/C [1, 16]: 71.3% | Tumor Vol. Mean [1, 16]: 0.188 cm^3 | Tumor Vol. Median [1, 16]: 0.187 cm^3 | RTV Mean [1, 17]: 2.8 | RTV Median [1, 17]: 2.9 | T/C [1, 17]: 89.8% | Tumor Vol. Mean [1, 17]: 0.26 cm^3 | Tumor Vol. Median [1, 17]: 0.236 cm^3 | RTV Mean [1, 18]: 3.5 | RTV Median [1, 18]: 3.5 | T/C [1, 18]: 92.1% | Tumor Vol. Mean [1, 18]: 0.323 cm^3 | Tumor Vol. Median [1, 18]: 0.283 cm^3 | RTV Mean [1, 19]: 3.9 | RTV Median [1, 19]: 4 | T/C [1, 19]: 89.3% | Tumor Vol. Mean [1, 19]: 0.367 cm^3 | Tumor Vol. Median [1, 19]: 0.303 cm^3 | RTV Mean [1, 20]: 5.6 | RTV Median [1, 20]: 5.8 | T/C [1, 20]: 96.3% | Tumor Vol. Mean [1, 20]: 0.541 cm^3 | Tumor Vol. Median [1, 20]: 0.505 cm^3 | Tumor hemoglobin level, mean (± SEM) [2]: 8.8 ± 1.0 mg hemoglobin/g of tissue

From patent publication US20220257698A1, “ANGIOTENSIN TYPE 2 (AT2) RECEPTOR AGONISTS FOR USE IN THE TREATMENT OF CANCER” (LANTHIOPEP B.V., priority 2019, published 2022)
